# Measured values taken from patent publication US7731985B2, “4-aminopyrimidines and their use for the antimicrobial treatment of surfaces” (Ciba Specialty Chemicals Corporation, priority 2002, dated 2010).
# Marks after values point to notes of the source that are not given here.
# Key:
# Format in all cases: cell-based
# [1] = test system: Klebsiella pneumoniae ATCC 4352; experiment: Agar incorporation test CG128e (Example 11); conditions: 24 hours at 37° C.
# Protocol: (§1) [table] 0.3 ml of each dilution step is mixed with 15 ml of nutrient medium while the latter is still liquid. After the nutrient medium has solidified, 10 μl of each of the following organism dilutions of the test strains in 0.85% NaCl solution are spotted onto the agar medium: [table] The plates are incubated at 37° C. for 24 hours (A. niger at 28° C. for 3 days) and then the highest dilution (lowest concentration) of the test substance at which growth is just no longer discernible (corresponds to the MIC) is determined.
# [2] = test system: Escherichia coli ATCC 10536; experiment: Agar incorporation test CG128e (Example 11); conditions: 24 hours at 37° C.
# Protocol: as §1
# [3] = test system: Staphylococcus epidermidis ATCC 12228; experiment: Agar incorporation test CG128e (Example 11); conditions: 24 hours at 37° C.
# Protocol: as §1
# [4] = test system: Aspergillus niger ATCC 6275; experiment: Agar incorporation test CG128e (Example 11); conditions: 28° C. for 3 days
# Protocol: as §1
# [5] = test system: Propionibacterium acnes (*) ATCC 6919; experiment: Agar incorporation test CG128e (Example 11); conditions: 24 hours at 37° C.; organism marked *
# Protocol: as §1
# [6] = test system: Candida albicans ATCC 10231; experiment: Agar incorporation test CG128e (Example 11); conditions: 24 hours at 37° C.
# Protocol: as §1
# [7] = test system: Corynebacterium xerosis* ATCC 373; experiment: Agar incorporation test CG128e (Example 11); conditions: 24 hours at 37° C.; organism marked *
# Protocol: as §1
# [8] = test system: Proteus vulgaris ATCC 6896; experiment: Agar incorporation test CG128e (Example 11); conditions: 24 hours at 37° C.
# Protocol: as §1
# [9] = test system: Salmonella choleraesuis ATCC 9184; experiment: Agar incorporation test CG128e (Example 11); conditions: 24 hours at 37° C.
# Protocol: as §1
# [10] = test system: Staphylococcus aureus ATCC 6538; experiment: Agar incorporation test CG128e (Example 11); conditions: 24 hours at 37° C.
# Protocol: as §1
# [11] = test system: C. minutissimum ATCC 23348; experiment: Agar incorporation test CG128e (Example 11); conditions: 24 hours at 37° C.
# Protocol: as §1
# [12] = test system: Escherichia coli NCTC 8196; experiment: Agar incorporation test CG128e (Example 11); conditions: 24 hours at 37° C.
# Protocol: as §1
# [13] = test system: Pseudomonas aeruginosa ATCC 15442; experiment: Agar incorporation test CG128e (Example 11); conditions: 24 hours at 37° C.
# Protocol: as §1
# [14] = test system: Staphylococcus aureus ATCC 9144; experiment: Agar incorporation test CG128e (Example 11); conditions: 24 hours at 37° C.
# Protocol: as §1
# [15] = test system: Escherichia coli ATCC 10536; experiment: "Microbicidal Activity" suspension test CG 161/EN1040 (Example 12); conditions: E. coli
# Protocol: (§2) Bacteria are incubated overnight in CASO broth and adjusted to an organism count of 1-5×10^5 CFU/ml using 0.85% sodium chloride solution. The test substances are pre-pipetted into microtitre plates in amounts of 8 μl per well. The adjusted test organism suspensions are added in amounts of 192 μl per well to the test substances and mixed. After defined contact times, the test batches are mixed, an aliquot is withdrawn and diluted in several steps in a dilution series of 1:10 in a suitable inactivation medium. The test plates are incubated for 24 hours at 37° C. After incubation, the growth is determined on the basis of the turbidity of the test batches (optical density) at 620 nm in a microplate reader. […] One microtitre plate is used for each test organism. All the substances are tested in duplicate.
# [16] = test system: Actynomyces viscosus ATCC 43146; experiment: as above; conditions: A. viscosus
# Protocol: as §2
# [17] = test system: Staphylococcus aureus ATCC 6538; experiment: as above; conditions: S. aureus
# Protocol: as §2
# [18] = test system: Pseudomonas aeruginosa CIP A-22 (=PA); experiment: MIC in microtitre plates (Example 10); design: unit not given here; conditions: microtitre plate, 48 hours at 37° C., ≦20% growth
# Procedure, shortened: (§3)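 DMSO-dissolved compounds tested in 1:2 serial dilution against overnight CASO broth cultures, inoculum adjusted to 1-5×10^6 CFU/ml then diluted 1:100 in CASO. Incubated 48 hours at 37° C; turbidity read at 620 nm. MIC = lowest concentration giving ≦20% growth versus control; duplicates.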
# [19] = test system: Candida albicans ATCC 10231 (=CA); experiment: MIC in microtitre plates (Example 10); design: unit not given here; conditions: microtitre plate, 48 hours at 37° C., ≦20% growth
# Procedure, shortened: as §3
# [20] = test system: Staphylococcus aureus ATCC 9144 (=SA); experiment: MIC in microtitre plates (Example 10); design: unit not given here; conditions: microtitre plate, 48 hours at 37° C., ≦20% growth
# Procedure, shortened: as §3
# [21] = test system: Escherichia coli NCTC 8196 (=EC); experiment: MIC in microtitre plates (Example 10); design: unit not given here; conditions: microtitre plate, 48 hours at 37° C., ≦20% growth
# Procedure, shortened: as §3
# [22] = contact time 5 min, test substance 120 ppm
# [23] = contact time 30 min, test substance 120 ppm
# [24] = contact time 5 min, test substance 0.12%
# [25] = contact time 30 min, test substance 0.12%
structure (smiles),measurement,setting,value
CCCCCCCCCCCCNc1cc(C)nc(-c2cccnc2)n1 [Compound of formula 36],MIC (agar incorporation) Klebsiella pneumoniae ATCC 4352,[1],60**
same,MIC (agar incorporation) Escherichia coli ATCC 10536,[2],>120
same,MIC (agar incorporation) Staphylococcus epidermidis ATCC 12228,[3],>120
same,MIC (agar incorporation) Aspergillus niger ATCC 6275,[4],>120
same,MIC (agar incorporation) Propionibacterium acnes (*) ATCC 6919,[5],60
same,MIC (agar incorporation) Candida albicans ATCC 10231,[6],>120
same,MIC (agar incorporation) Corynebacterium xerosis* ATCC 373,[7],60
same,MIC (agar incorporation) Proteus vulgaris ATCC 6896,[8],>120
same,MIC (agar incorporation) Salmonella choleraesuis ATCC 9184,[9],>120
same,MIC (agar incorporation) Staphylococcus aureus ATCC 6538,[10],120
same,MIC (agar incorporation) C. minutissimum ATCC 23348,[11],30
same,MIC (agar incorporation) Escherichia coli NCTC 8196,[12],120
same,MIC (agar incorporation) Pseudomonas aeruginosa ATCC 15442,[13],>120
same,MIC (agar incorporation) Staphylococcus aureus ATCC 9144,[14],120
CCCCCCCCCCCCNc1cc(C)nc(C)n1 [Compound of formula 89],MIC (agar incorporation) Klebsiella pneumoniae ATCC 4352,[1],>120
same,MIC (agar incorporation) Escherichia coli ATCC 10536,[2],>120
same,MIC (agar incorporation) Staphylococcus epidermidis ATCC 12228,[3],120
same,MIC (agar incorporation) Aspergillus niger ATCC 6275,[4],>120
same,MIC (agar incorporation) Propionibacterium acnes (*) ATCC 6919,[5],3.75
same,MIC (agar incorporation) Candida albicans ATCC 10231,[6],>120
same,MIC (agar incorporation) Corynebacterium xerosis* ATCC 373,[7],3.75
same,MIC (agar incorporation) Proteus vulgaris ATCC 6896,[8],60
same,MIC (agar incorporation) Salmonella choleraesuis ATCC 9184,[9],>120
same,MIC (agar incorporation) Staphylococcus aureus ATCC 6538,[10],7.5
same,MIC (agar incorporation) C. minutissimum ATCC 23348,[11],3.75
same,MIC (agar incorporation) Escherichia coli NCTC 8196,[12],120
same,MIC (agar incorporation) Pseudomonas aeruginosa ATCC 15442,[13],>120
same,MIC (agar incorporation) Staphylococcus aureus ATCC 9144,[14],7.5
same,log reduction,[15]; [22],4.6 log
same,log reduction,[15]; [23],>5 log
same,log reduction,[16]; [24],4.9 log
same,log reduction,[16]; [22],3.9 log
same,log reduction,[16]; [25],>5 log
same,log reduction,[16]; [23],4.3 log
same,log reduction,[17]; [22],<1 log
same,log reduction,[17]; [23],1.7 log
"CCCCCCCCCCCCNc1cc(C)nc(C(C)C)n1 [Compound of formula 93, 4-dodecylamino-2-isopropyl-6-methylpyrimidine]",MIC (agar incorporation) Klebsiella pneumoniae ATCC 4352,[1],60
same,MIC (agar incorporation) Escherichia coli ATCC 10536,[2],120
same,MIC (agar incorporation) Staphylococcus epidermidis ATCC 12228,[3],3.75
same,MIC (agar incorporation) Aspergillus niger ATCC 6275,[4],>120
same,MIC (agar incorporation) Propionibacterium acnes (*) ATCC 6919,[5],3.75 (*)
same,MIC (agar incorporation) Candida albicans ATCC 10231,[6],>120
same,MIC (agar incorporation) Corynebacterium xerosis* ATCC 373,[7],1.88*
same,MIC (agar incorporation) Proteus vulgaris ATCC 6896,[8],>120
same,MIC (agar incorporation) Salmonella choleraesuis ATCC 9184,[9],120
same,MIC (agar incorporation) Staphylococcus aureus ATCC 6538,[10],3.75
same,MIC (agar incorporation) C. minutissimum ATCC 23348,[11],1.88
same,MIC (agar incorporation) Escherichia coli NCTC 8196,[12],120
same,MIC (agar incorporation) Pseudomonas aeruginosa ATCC 15442,[13],>120
same,MIC (agar incorporation) Staphylococcus aureus ATCC 9144,[14],3.75
same,log reduction,[15]; [24],>5 log
same,log reduction,[15]; [22],>5 log
same,log reduction,[15]; [25],>5 log
same,log reduction,[15]; [23],>5 log
same,log reduction,[16]; [24],>5 log
same,log reduction,[16]; [22],2 log
same,log reduction,[16]; [25],>5 log
same,log reduction,[16]; [23],4 log
same,log reduction,[17]; [24],>5 log
same,log reduction,[17]; [22],1.4 log
same,log reduction,[17]; [25],>5 log
same,log reduction,[17]; [23],3.8 log
CCCCC(CC)CNc1cc(C)nc(C)n1 (stereo not shown) [compound 135],MIC PA,[18],>120
same,MIC CA,[19],30
same,MIC SA,[20],60
same,MIC EC,[21],120
CCCCC(CC)CNc1cc(C)nc(-c2ccc(C)cc2)n1 (stereo not shown) [compound 136],MIC PA,[18],>120
same,MIC CA,[19],60
same,MIC SA,[20],7.5
same,MIC EC,[21],>120
CCCCC(CC)CNc1cc(C)nc(C2CC2)n1 (stereo not shown) [compound 137],MIC PA,[18],>120
same,MIC CA,[19],15
same,MIC SA,[20],15
same,MIC EC,[21],30
CCCCC(CC)CNc1cc(C)nc(C(C)C)n1 (stereo not shown) [compound 138],MIC PA,[18],>120
same,MIC CA,[19],30
same,MIC SA,[20],30
same,MIC EC,[21],60
CCCCC(CC)CNc1cc(C)nc(-c2csc(C)n2)n1 (stereo not shown) [compound 139],MIC PA,[18],>120
same,MIC CA,[19],30
same,MIC SA,[20],7.5
same,MIC EC,[21],60
CCCCC(CC)CNc1cc(C)nc(-c2ccc(C)c(F)c2)n1 (stereo not shown) [compound 140],MIC PA,[18],>120
same,MIC CA,[19],120
same,MIC SA,[20],15
same,MIC EC,[21],>120
Cc1cc(NC(C)CC(C)C)nc(-c2ccccc2)n1 (stereo not shown) [compound 141],MIC PA,[18],>120
same,MIC CA,[19],>120
same,MIC SA,[20],120
same,MIC EC,[21],>120
Cc1cc(NC(C)CC(C)C)nc(-c2ccncc2)n1 (stereo not shown) [compound 142],MIC PA,[18],>120
same,MIC CA,[19],120
same,MIC SA,[20],30
same,MIC EC,[21],>120
Cc1cc(NC(C)CC(C)C)nc(C)n1 (stereo not shown) [compound 143],MIC PA,[18],>120
same,MIC CA,[19],120
same,MIC SA,[20],>120
same,MIC EC,[21],>120
Cc1ccc(-c2nc(C)cc(NC(C)CC(C)C)n2)cc1 (stereo not shown) [compound 144],MIC PA,[18],>120
same,MIC CA,[19],120
same,MIC SA,[20],60
same,MIC EC,[21],>120
Cc1cc(NC(C)CC(C)C)nc(C2CC2)n1 (stereo not shown) [compound 145],MIC PA,[18],>120
same,MIC CA,[19],120
same,MIC SA,[20],>120
same,MIC EC,[21],>120
Cc1cc(NC(C)CC(C)C)nc(C(C)C)n1 (stereo not shown) [compound 146],MIC PA,[18],>120
same,MIC CA,[19],120
same,MIC SA,[20],>120
same,MIC EC,[21],>120
Cc1cc(NC(C)CC(C)C)nc(-c2csc(C)n2)n1 (stereo not shown) [compound 147],MIC PA,[18],>120
same,MIC CA,[19],120
same,MIC SA,[20],60
same,MIC EC,[21],>120
Cc1cc(NC(C)CC(C)C)nc(-c2ccc(C)c(F)c2)n1 (stereo not shown) [compound 148],MIC PA,[18],>120
same,MIC CA,[19],>120
same,MIC SA,[20],120
same,MIC EC,[21],>120
